{
  "source": "patent US8372880B2",
  "about": "“Compositions and methods using same for treating amyloid-associated diseases” (Tel Aviv University Future Technology Development L.P., priority 2003, dated 2013)",
  "key": {"hIAPP1-37": {"target": "T1, hIAPP1-37 (Homo sapiens, UniProt P10997)", "T1 construct": "purchased Calbiochem (CalBiochem Calif., USA); host or cells: solid-phase chemical synthesis", "T1 sequence (P10997 34-70 limits assumed)": "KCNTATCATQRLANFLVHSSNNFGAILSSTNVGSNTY", "assay": "Thioflavin T fluorescence assay of fibril formation", "assay_type": "biochemical", "procedure": "Fibrillization of hIAPP1-37 was monitored by Thioflavin T dye binding assay. hIAPP1-37 stock solution was diluted to a final concentration of 4 μM in 10 mM sodium acetate buffer (pH 6.5) with or without inhibitor, and a final HFIP concentration of 1% (vol). […] In every measurement ThT was added to a final concentration of 3 μM and measurements were carried out using Perkin Elmer (excitation 450 nm, 2.5 nm slit; emission 480 nm 10 nm slit). […] Background was subtracted from all samples.\nThioflavin T (ThT) is commonly used for detecting the level of amyloid formation. hIAPP1-37 solution was prepared as described above. Following incubation in the presence or absence of phenol red and addition of 3 μM ThT to each sample, fluorescence was measured.\nFibrillization of hIAPP1-37 was monitored by Thioflavin T (ThT) dye binding assay, as described above, using an inhibitor concentration of 40 μM or 4 μM."}, "βTC-tet cells": {"system": "βTC-tet cells", "assay": "MTT cell viability assay, hIAPP cytotoxicity", "assay_type": "cell-based, murine", "conditions": "4 μM hIAPP1-37, 24 hrs, phenol red in medium, 50% without phenol red", "procedure": "βTC-tet cells [Fleischer, N., Chen C., Surana, M., Leiser, M., Rossetti, L., Pralong, W. and Efrat, S. (1998) Functional analysis of a conditionally transformed pancreatic beta-cell line, Diabetes 47, 1419-1425] or PC12 cells (ATCC # CRL-1721) were plated on 24-well plates (2-10^5/well) or on 96-well plates (1-10^4/well) respectively, and allowed to adhere for 24 hours. Synthetic hIAPP1-37 stock solution was diluted to a final concentration of 4 μM in serum free growth medium [Fleischer (1998) Supra] containing DMEM with or without phenol red. Immediately following dilution, samples were centrifuged at 4° C. for 20 minutes at 20,000 g, and the supernatant was bubbled with nitrogen for 30 min to evaporate residual HFIP. Cells were washed twice with PBS and incubated with the supernatant for 24 hrs. MTT (Sigma M-2128) was then added for 3 hrs, followed by addition of lysis buffer and incubation over night. Assay was effected according to Manufacturer's instructions. Samples were read at 570 nm. Cell viability was calculated in comparison to cells incubated in the absence of hIAPP in medium with or without phenol red, respectively.\nThe ability of phenol red to modulate cytotoxicity effect of hIAPP amyloid assemblies on pancreatic β cells in culture was addressed. […]"}, "Caco-2 cells [1]": {"system": "Caco-2 cells", "description": "LDH Assay: 100 μl of cells supernatant were removed from the basolateral chamber at the end of transport experiment. LDH release was assayed according to the manufacturer instructions using cytotoxicity detection kit (Roche, Cat. No. 1 644 793).\nSpecifically, an increase in the amount of dead or plasma membrane-damaged cells results in release of lactate dehydrogenase (LDH) enzyme to the surrounding buffer. The enzymatic activity of LDH is measured in a colorimetric assay. A surfactant that damages cell membranes is used as a positive control.\nShort term damage—LDH Release: LDH activity in basolateral buffer from inserts of each group (n=2) was measured in a colorimetric assay as described hereinabove. The positive control glycocholate was previously assayed and is shown for comparison."}, "Caco-2 cells [2]": {"system": "Caco-2 cells", "conditions": "for recovery at experiment end point: 90 minutes", "description": "Cells at passage 68 were used in these studies. Caco-2 cells were grown in high D-glucose DMEM medium supplemented with 1% L-glutamine, 1% nonessential amino acids, 1% sodium pyruvate, 1% penicillinstreptomycin and 10% fetal bovine serum.\nCells (passage 68) were harvested after 95% confluence and seeded at a density of 85,000 cells per polycarbonate membranes (0.4 μm pore size and a surface area of 0.33 cm^2) inserts. Cells on inserts were cultured for 10 days.\nTransport studies: Test substances transport across Caco-2 monolayers was investigated in ‘apical to basolateral’ direction (n=2), at two time points (45 and 90 minutes).\nPrior to the experiment, the culture medium was removed; cells were washed twice with 150 μl apical buffer and 600 μl basolateral buffer (containing 25 mM D-glucose, 20 mM HEPES biological buffer, 1.25 mM CaCl2, 0.5 mM MgCl2, adjusted to pH 7.4 with KOH) and were incubated for 30 minutes at 37° C., 45 RPM, with the same buffers.\nTransport studies were performed at 37° C., with shaking at 45 RPM with either the tested compounds or standards (n=2). At each time point, aliquot of 120 μl Basolateral sample was drawn from each insert. For the radioactive marker Mannitol, 20 μl duplicate aliquots were drawn at each time point. […] At endpoint (90 minutes), the whole volume of the apical and basolateral chambers was collected.\nData Recording: Substance samples and propranolol standard samples were analyzed using HPLC (see below for analyses details). [^3H]-Mannitol samples were subjected to analysis by liquid scintillation counting in a Packard TopCount NXT. The results were obtained in CPM.\nPapp Calculations: Apparent permeability coefficients (Papp) of tested compounds and standards were calculated from the following equation: Papp(t)=(CtV/t)×(1/C0A) where C0 is the initial concentration (at t=0) of the compound on the donor (apical side); Ct is the concentration at the calculated time point (t) in the receiver (basolateral) chamber; V is receiver chamber volume; A is the surface area of the monolayer; and t is the elapsed time.\nCompound and standards Recovery: At the last time point of the experiment (90 minutes), basolateral and apical amounts values were measured and recovery (%) of the tested compound or standard was calculated according to the following equation: Recovery %=(C90 min×Vbasolateral)+(C90 min×Vapical)/C0×Vapical\nHPLC analyses: HPLC analyses were performed using a Waters 2790 HPLC system, equipped with PDA 996 detector (Waters)."}, "[3]": {"assay": "Pharmacokinetics in mice, oral administration", "description": "(§1) Male mice (ICR), 5 weeks of age, weighing 27-32 grams at study initiation were used. A total of sixteen animals were tested in each set of experiments, divided to 8 groups, 2 animals in each group. Animals were acclimatized for 5-7 days. All test animals was kept under environmental controlled housing conditions throughout the entire study period, and maintained in accordance with Harlan Biotech Israel (HBI) approved standard operation procedures (SOP's).\nAdministration to test animals was performed orally, following food deprivation of about 3.5-5 hours, by the use of gavage needle made of stainless steel which was introduced directly to the stomach.\nDosing solutions were prepared as described hereinabove for the I.V. administration.\nBlood samples were taken, as described hereinabove, at the following time points: 30, 45, 60, 120, 180, 240, 300 and 360 minutes post dosing, two animals per time point, by retro orbital sinus bleeding under CO2 anesthesia.\n(§2) Analysis was performed in Analyst Ltd., using LC/MS/MS method.\n(§3) The chromatographic separation was achieved on a Gemini C1 8 column (50×2.0 mm, 5 μm), using 50:50 acetonitrile:water solution containing 0.1% NH4OH as the mobile phase, at a flow rate of 0.3 ml/minute.\n(§4) All samples were analyzed by the Micromass Quattro Pt triple-quadrupole mass selective detector equipped with an electrospray ionization source. […] The system includes a 2795 HT Waters HPLC and Masslynx v.4.0 software. Quanlynx v.4.0 software was used for calculation.\n(§5) For calculation of phenol red concentration in samples, weighted linear regression curves (1/x^2) were calculated from response of analyte versus calibration standard concentration. The weighted linear regression correlation coefficient was grater than 0.99.\n(§6) K Parameters Calculations: PK parameters were calculated using Winnonlin Pro 4.01 software (Pharsight)."}, "[4]": {"assay": "Pharmacokinetics in mice, intravenous administration", "conditions": "for PF3 Concentration / Phenol red Concentration, Analyzed: mice plasma", "description": "as §1\nA single slow intravenous injection (over a period of approximately one minute) was administered into one of the tail veins of each animal.\nDosing solutions were prepared in a co-solvent vehicle system containing DMA:PEG400:Saline 25:40:35 respectively (e.g., each 1 ml consists of 0.25 ml DMA, 0.4ml PEG400 and 0.35 ml Saline).\nDosing solutions were freshly and identically prepared prior to dosing, as deemed necessary.\nBlood samples were taken at the following time points: pre-dosing (time 0), 5, 15, 30, 60, 90, 120 and 300 minutes post dosing, two animals per time point, by retro orbital sinus bleeding under CO2 anesthesia. Individual blood samples of at least 0.4 ml whole blood were collected into pre-labeled lithium heparin coated tubes. Plasma separation was made as soon as possible after collection, by centrifugation at 2500G for 15 minutes. After centrifugation supernatant was transferred to eppendorff tube (1.5 ml) pre-labeled with the appropriate animal number, study number and time post dosing. Plasma samples were kept at about −20° C.\nas §2, §3, §4, §5, §6"}, "hIAPP20-29 [5]": {"target": "T2, hIAPP20-29 (Homo sapiens, UniProt P10997)", "T2 construct": "purchased Peptron, Inc. (Taejeon, Korea); host or cells: solid-phase chemical synthesis", "assay": "Transmission electron microscopy of fibrils", "assay_type": "biochemical", "conditions": "hIAPP20-29 with inhibitor, 24 hr incubation", "procedure": "10 μL samples of hIAPP22-29 or hIAPP20-29 from the aggregation assay, and hIAPP1-37 from the fluorescence assay were placed on 400-mesh copper grids (SPI supplies, West Chester Pa.) covered by carbon-stabilized Formvar film. After 1 minute, excess fluid was removed, and the grids were negatively stained with 2% uranyl acetate in water for another two minutes. Samples were viewed in a JEOL 1200EX electron microscope operating at 80 kV.\nSamples of hIAPP22-29 and hIAPP20-29 taken from the aggregation assay (described in Example 3) were visualized using transmission electron microscopy. As is shown in FIG. 4a, distinct and well-defined amyloid fibers were observed 3 and 72 hours after initiation of aggregation in both samples of the hIAPP22-29 peptide, with a minor increase in fiber density and width following 72 hours. […] Same results were obtained with the hIAPP20-29 peptide after 24 hr incubation (FIG. 4b) in the presence of phenol red inhibitor. No inhibition was observed using phenolphthaleine under the same conditions and fibrillar structures were evident on the TEM grid."}, "hIAPP20-29 [6]": {"target": "T2, hIAPP20-29", "assay": "Kinetic aggregation assay (turbidity)", "assay_type": "biochemical", "conditions": "1 mM peptide, 40 mM inhibitor, Tris pH 7.2, 4% DMSO", "procedure": "Stock solutions of hIAPP22-29 and hIAPP20-29 peptide were prepared by dilution of lyophilized peptides into 10 mM Tris-HCl (pH 7.2) buffer to a final concentration of 1 mM peptide and 4% DMSO. Turbidity data were collected at 405 or 560 nm at room temperature. A buffer solution containing the same amount of DMSO as the tested samples was used as blank. Turbidity was measured using disposable UVette cuvettes (Eppendorf, Germany) and a Scinco S-3100 spectrophotometer.\nThe core amyloidogenic fragments of hIAPP (hIAPP22-29, hIAPP20-29) aggregate in an aqueous solution. Such an aggregation behavior was served as a preliminary assay for amyloid formation.\nIn order to evaluate the ability of phenol red to inhibit amyloid formation, the aggregation of 1 mM hIAPP22-29 and hIAPP20-29 (SEQ ID NO: 1 and NO: 2, respectively) was examined in the absence or presence of 40 mM phenol red. To verify the specificity of phenol red molecule towards hIAPP core peptides, a very similar molecule—phenolphthaleine, which differs only by the lack of the sulfon group, was used as control (FIG. 7)."}, "[7]": {"conditions": "4 μM hIAPP1-37, 40 μM inhibitor"}, "[8]": {"conditions": "I.V. PF3, 5 minutes post dosing"}, "[9]": {"conditions": "I.V. PF3, 15 minutes post dosing"}, "[10]": {"conditions": "I.V. PF3, 30 minutes post dosing"}, "[11]": {"conditions": "I.V. PF3, 60 minutes post dosing"}, "[12]": {"conditions": "I.V. PF3, 125 minutes post dosing"}, "[13]": {"conditions": "I.V. PF3, 300 minutes post dosing"}, "[14]": {"conditions": "phenol red plasma profile, mice, I.V. PF3"}, "[15]": {"conditions": "phenol red plasma profile, mice, I.V. PF3 .25 mg/kg"}},
  "note": "Where “and” joins values, the source holds several entries; their conditions need not be identical. Equal entries are not always repeated. Where two headings read alike, the source gives them in different places.",
  "data": [
    {"compound": "Nc1c(/N=N/c2ccc(-c3ccc(/N=N/c4cc(S(=O)(=O)O)c5ccccc5c4N)cc3)cc2)cc(S(=O)(=O)O)c2ccccc12", "note": "[congo red, Congo red, reference compound]", "values": [
      {"measurement": "inhibition of hIAPP1-37 fibril formation (ThT fluorescence)", "setting": "hIAPP1-37; green tea polyphenols experiment, 48 hr to 12 days", "result": "inhibitory effect"}
    ]},
    {"compound": "O=S1(=O)OC(c2ccc(O)cc2)(c2ccc(O)cc2)c2ccccc21", "note": "[phenol red]", "values": [
      {"measurement": "cell viability (MTT)", "setting": "βTC-tet cells", "result": 80, "unit": "%"},
      {"measurement": "IC50", "setting": "hIAPP1-37; 4 μM hIAPP1-37, gradual concentration of phenol red, read-out: IC50 of inhibition of fibril formation (ThT fluorescence)", "result": "~2500", "unit": "nM"},
      {"measurement": "inhibition level of fibril formation (ThT end point)", "setting": "hIAPP1-37; phenol red concentration of 20 μM and above, after one week of incubation", "result": "about 90%"}
    ]},
    {"compound": "COc1ccc(C2(c3ccc(OC)cc3)OS(=O)(=O)c3ccccc32)cc1", "note": "[PF4, dimethoxy phenol red]", "values": [
      {"measurement": "cytotoxicity (LDH activity in basolateral buffer)", "setting": "Caco-2 cells [1]; CaCo-2 inserts after transport experiment", "result": "negligible"},
      {"measurement": "recovery at experiment end point", "setting": "Caco-2 cells [2]; 0.2 mM concentration", "result": "105%±31%"},
      {"measurement": "recovery at experiment end point", "setting": "Caco-2 cells [2]; 1 mM concentration", "result": "123%±48%"},
      {"measurement": "detection at the basolateral chamber", "setting": "Caco-2 cells [2]; both tested concentrations", "result": "not detected"},
      {"measurement": "inhibition of hIAPP1-37 fibril formation (ThT fluorescence)", "setting": "hIAPP1-37; [7]", "result": "reduced inhibition effect relatively to the phenol red molecule"},
      {"measurement": "inhibition of hIAPP1-37 fibril formation (ThT fluorescence)", "setting": "hIAPP1-37; 40 μM inhibitor, sample not centrifuged", "result": "more evident"}
    ]},
    {"compound": "diacetoxy phenol red [PF3]", "values": [
      {"measurement": "presence of the pro-drug PF3 in plasma", "setting": "[3]; following oral administration", "result": "not detected"},
      {"measurement": "intestinal absorption", "setting": "[3]; oral administration", "result": "clearly absorbed in the intestine"},
      {"measurement": "Half Life", "setting": "[3]; phenol red plasma profile, P.O. PF3 […]", "result": 32, "unit": "min"},
      {"measurement": "F, Bioavailability", "setting": "[3]; phenol red plasma profile, P.O. PF3 […] vs I.V.", "result": 16, "unit": "%"},
      {"measurement": "LDH activity in basolateral buffer", "setting": "Caco-2 cells [1]; 0.1 mM, only one of the inserts, not repeated, attributed to a factor other than PF3", "result": "increase in LDH activity was detected"},
      {"measurement": "recovery at experiment end point", "setting": "Caco-2 cells [2]; 1 mM concentration", "result": "53%±5%"},
      {"measurement": "permeability grading", "setting": "Caco-2 cells [2]; CaCo-2, apical to basolateral", "result": "low-medium range"},
      {"measurement": "Papp values compared to standards", "setting": "Caco-2 cells [2]; apical to basolateral, 45 and 90 minutes", "result": "higher than mannitol (a marker of paracellular transport) Papp values and lower than propranolol"},
      {"measurement": "detection of transport", "setting": "Caco-2 cells [2]; higher concentration (0.1 mM)", "result": "detected"},
      {"measurement": "detection in the basolateral chamber", "setting": "Caco-2 cells [2]; lower concentration (0.02 mM), 45 and 90 minutes", "result": "not detected"},
      {"measurement": "inhibition of hIAPP1-37 fibril formation (ThT fluorescence)", "setting": "hIAPP1-37; [7]", "result": "reduced inhibition effect relatively to the phenol red molecule"},
      {"measurement": "PF3 Concentration", "setting": "[4]; [8]", "result": "n/d (not detected and denotes a concentration lower than 5 ng/ml)"},
      {"measurement": "Phenol red Concentration, Analyzed", "setting": "[4]; [8]", "result": ">20", "unit": "µg/mL"},
      {"measurement": "PF3 Concentration", "setting": "[4]; [9]", "result": "n/d (not detected and denotes a concentration lower than 5 ng/ml)"},
      {"measurement": "Phenol red Concentration, Analyzed", "setting": "[4]; [9]", "result": ">20", "unit": "µg/mL"},
      {"measurement": "PF3 Concentration", "setting": "[4]; [10]", "result": "n/d (not detected and denotes a concentration lower than 5 ng/ml)"},
      {"measurement": "Phenol red Concentration, Analyzed", "setting": "[4]; [10]", "result": ">20", "unit": "µg/mL"},
      {"measurement": "PF3 Concentration", "setting": "[4]; [11]", "result": "n/d (not detected and denotes a concentration lower than 5 ng/ml)"},
      {"measurement": "Phenol red Concentration, Analyzed", "setting": "[4]; [11]", "result": "4.12 µg/mL and 4.33 µg/mL"},
      {"measurement": "PF3 Concentration", "setting": "[4]; I.V. PF3, 90 minutes post dosing", "result": "n/d (not detected and denotes a concentration lower than 5 ng/ml)"},
      {"measurement": "PF3 Concentration", "setting": "[4]; [12]", "result": "n/d (not detected and denotes a concentration lower than 5 ng/ml)"},
      {"measurement": "Phenol red Concentration, Analyzed", "setting": "[4]; [12]", "result": 0.76, "unit": "µg/mL"},
      {"measurement": "PF3 Concentration", "setting": "[4]; [13]", "result": "n/d (not detected and denotes a concentration lower than 5 ng/ml)"},
      {"measurement": "Phenol red Concentration, Analyzed", "setting": "[4]; [13]", "result": "0.22 µg/mL and 0.29 µg/mL"},
      {"measurement": "presence of the pro-drug PF3 in plasma", "setting": "[4]; mice, following I.V. administration, even after 5 minutes", "result": "not observed"},
      {"measurement": "AUC (area under the curve)", "setting": "[4]; [14]", "result": 2232, "unit": "µg·min/mL"},
      {"measurement": "Volume of distribution (Vss)", "setting": "[4]; [14]", "result": 0.367, "unit": "L/kg"},
      {"measurement": "Clearance", "setting": "[4]; [15]", "result": 11, "unit": "mL/min/kg"},
      {"measurement": "Half Life", "setting": "[4]; [15]", "result": 40, "unit": "min"}
    ]},
    {"compound": "O=C1OC(c2ccc(O)cc2)(c2ccc(O)cc2)c2ccccc21", "note": "[phenolphthaleine]", "values": [
      {"measurement": "fibril morphology by TEM", "setting": "hIAPP20-29 [5]", "result": "No inhibition"},
      {"measurement": "fibril morphology by TEM", "setting": "hIAPP20-29 [5]; listed as phenolephthaleine", "result": "no inhibition effect"},
      {"measurement": "aggregation of hIAPP20-29 (turbidity)", "setting": "hIAPP20-29 [6]", "result": "No inhibition effect"}
    ]}
  ]
}
